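Growth conditions: 96-well plates. Treatment: test compound, 48 hours, 5 concentrations. Analysis: linear interpolation between bracketing concentrations; unreached endpoints set to highest concentration. Definition used: TGI = concentration required for complete inhibition of growth.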

TGI data for 20 compounds are collected here from PubChem BioAssay (NCI).

Among the test systems are ACHN renal; M14 melanoma; MOLT-4 leukemia; NCI-H460 lung; NCI/ADR-RES ovarian; SF-268 CNS; SN12C renal; SW-620 colon; U251 CNS; UO-31 renal; CAKI-1 renal.
What all share (assay): NCI-60 cell line screen, 48 h

`COc1cc(/C=C/C(=O)OC[C@]23O[C@H]2[C@@H](OC2OC(C)C(O)C(O)C2O)C2C=CO[C@@H](OC4OC(CO)C(O)C(O)C4O)C23)ccc1O` (stereo not given in full): the TGI with ACHN renal, with M14 melanoma, with MOLT-4 leukemia, in the assay on NCI-H460 lung, with NCI/ADR-RES ovarian and with SF-268 CNS was greater than 100 µM each time. Further, the TGI in the assay with SN12C renal, with SW-620 colon, with U251 CNS and in the assay on UO-31 renal was greater than 100 µM each time.

In the case of `c1ccc2c3c(c(N4CCNCC4)nc2c1)CCCC3`, the TGI with ACHN renal is 27.6 µM; in the assay with CAKI-1 renal, 21.9 µM; in the assay on M14 melanoma it was 19 µM; with MOLT-4 leukemia, greater than 100 µM; with NCI-H460 lung, 29.4 µM; with NCI/ADR-RES ovarian, 27.3 µM. In addition, the TGI was determined as 33.8 µM with SF-268 CNS; 31.1 µM with SN12C renal; 35 µM in the assay on SW-620 colon; 26.2 µM in the assay with U251 CNS; 16.3 µM in the assay with UO-31 renal.

Regarding `COc1ccc(/C=N/N=C(N)N)c(C(=O)O)c1OC`, the TGI with ACHN renal, in the assay on CAKI-1 renal, with M14 melanoma, with MOLT-4 leukemia, with NCI-H460 lung and in the assay with SF-268 CNS was greater than 100 µM each time. In addition, the TGI in the assay on SN12C renal, in the assay on SW-620 colon, in the assay on U251 CNS and with UO-31 renal was greater than 100 µM in each case.

For the compound `O=C1CCCc2ccc3c(c21)CC1(Cc2cc4c(cc2C1)CCCC4)C3`, the TGI in the assay with ACHN renal is 30 µM; with M14 melanoma it was 33.2 µM; in the assay with MOLT-4 leukemia, 37.4 µM; in the assay with NCI-H460 lung it was 74.5 µM; with NCI/ADR-RES ovarian, greater than 100 µM; with SF-268 CNS, 77.1 µM. In addition, the TGI was determined as 54.2 µM in the assay with SN12C renal, 41.7 µM in the assay with SW-620 colon, 44.4 µM with U251 CNS and 32.4 µM in the assay on UO-31 renal.

Consider `O=C1OS2(OC(=O)c3cccc4cccc2c34)c2ccccc21` (stereo not given), for which the TGI in the assay with ACHN renal, with CAKI-1 renal, in the assay with M14 melanoma, in the assay on MOLT-4 leukemia, in the assay with NCI/ADR-RES ovarian and with SF-268 CNS was greater than 100 µM each time. For the same compound, the TGI in the assay with SN12C renal, in the assay on SW-620 colon, in the assay with U251 CNS and with UO-31 renal was greater than 100 µM in each case.

On to `CC1(C)OC2C(CO)OC(/N=C(\NC#N)Oc3ccccc3)C2O1` (stereo not given), for which the TGI with ACHN renal, with M14 melanoma, in the assay on MOLT-4 leukemia, in the assay on NCI-H460 lung, in the assay with SF-268 CNS and with SN12C renal was greater than 100 µM throughout. The TGI in the assay on SW-620 colon, in the assay with U251 CNS and with UO-31 renal was greater than 100 µM each time.

With `O=C1CCCn2c3ccccc3c3ccnc1c32`, the TGI with CAKI-1 renal was greater than 46.6 µM; in the assay on MOLT-4 leukemia, greater than 100 µM; in the assay on NCI-H460 lung it was greater than 100 µM; in the assay with NCI/ADR-RES ovarian, greater than 100 µM; in the assay on SF-268 CNS it was greater than 100 µM; with SN12C renal, greater than 100 µM. The TGI in the assay with SW-620 colon, in the assay with U251 CNS and in the assay on UO-31 renal was greater than 100 µM throughout.

For the compound `C=CCn1c(-c2ccc(N=NNc3ccc(-c4n[nH]c(=S)n4CC=C)cc3)cc2)n[nH]c1=S`, the TGI is 5.09 µM in the assay on ACHN renal; 19.1 µM with CAKI-1 renal; greater than 100 µM in the assay on M14 melanoma; 61.4 µM in the assay with NCI/ADR-RES ovarian; 21.5 µM in the assay on SF-268 CNS; greater than 100 µM in the assay with SN12C renal. The TGI is greater than 100 µM in the assay on SW-620 colon, 17.5 µM in the assay with U251 CNS and 3.97 µM with UO-31 renal.

In the case of `O=C1NC(N2CCOCC2)=N/C1=C\c1ccccc1`, the TGI in the assay on ACHN renal, with CAKI-1 renal, with M14 melanoma, with MOLT-4 leukemia, in the assay on NCI/ADR-RES ovarian and with SF-268 CNS was greater than 100 µM in each case. The TGI in the assay with SN12C renal, with SW-620 colon, in the assay on U251 CNS and in the assay with UO-31 renal was greater than 100 µM throughout.

As for `CCCCOP(=O)(OCCCC)C(NS(=O)(=O)c1ccccc1)(C(=O)OCC)C(F)(F)F` (stereo not given), the TGI was 85.1 µM with ACHN renal; greater than 100 µM in the assay with CAKI-1 renal; 68 µM with M14 melanoma; 58.1 µM in the assay with MOLT-4 leukemia; greater than 100 µM with NCI-H460 lung; 64.6 µM in the assay with NCI/ADR-RES ovarian. Moreover, the TGI was greater than 100 µM in the assay with SF-268 CNS, 90.4 µM in the assay on SN12C renal, 65 µM with U251 CNS and greater than 100 µM with UO-31 renal.

Turning to `COC(CO[Si](C)(C)N[Si](C)(C)OCC(OC)c1ccccc1)c1ccccc1` (stereo not given), the TGI in the assay with ACHN renal, in the assay with CAKI-1 renal, in the assay with M14 melanoma, with MOLT-4 leukemia, in the assay on NCI-H460 lung and in the assay with NCI/ADR-RES ovarian was greater than 100 µM throughout. In addition, the TGI in the assay with SN12C renal, in the assay with SW-620 colon, in the assay with U251 CNS and in the assay with UO-31 renal was greater than 100 µM in each case.

Turning to `CO/C=C(/C(=O)OC)c1ccccc1[C@H]1C[C@@H]1c1ccc(OC)cc1`, the TGI amounted to 74.2 µM in the assay with ACHN renal; 57.4 µM in the assay with CAKI-1 renal; 51.6 µM in the assay with M14 melanoma; 74.5 µM in the assay on MOLT-4 leukemia; 83 µM in the assay with NCI-H460 lung; 52.6 µM with NCI/ADR-RES ovarian. Also, the TGI was 86.3 µM with SF-268 CNS, greater than 100 µM in the assay on SN12C renal, greater than 100 µM with U251 CNS and greater than 100 µM in the assay on UO-31 renal.

For the compound `CCOC(=O)Cn1c(=O)c2cc(C)cc3c(Cl)nc4c(OC)c(OC)cc1c4c32`, the TGI in the assay with ACHN renal, with CAKI-1 renal, with M14 melanoma, with MOLT-4 leukemia, with NCI-H460 lung and in the assay on NCI/ADR-RES ovarian was greater than 100 µM in each case. In addition, the TGI with SF-268 CNS, in the assay on SW-620 colon, with U251 CNS and in the assay with UO-31 renal was greater than 100 µM in each case.

With `COC12OC3(C4OC41)C(C(=O)O[C@H]3CO[Si](C)(C)C(C)(C)C)C2S(=O)(=O)c1ccccc1` (stereo not given in full), the TGI is greater than 83.9 µM in the assay on ACHN renal; 3.33 µM in the assay on CAKI-1 renal; 3.53 µM in the assay with MOLT-4 leukemia; greater than 100 µM with NCI-H460 lung; greater than 100 µM in the assay on NCI/ADR-RES ovarian; greater than 9.26 µM in the assay on SN12C renal. In addition, the TGI in the assay on SW-620 colon was greater than 31.6 µM; in the assay on U251 CNS, greater than 7.83 µM; with UO-31 renal, greater than 5.18 µM.

Take `N#CCCN(CCN(CCN(C(=O)Nc1ccccc1)c1ccccc1)C(=O)Nc1ccccc1)C(=O)Nc1ccccc1`: the TGI in the assay on ACHN renal, in the assay on CAKI-1 renal, with M14 melanoma, with MOLT-4 leukemia, in the assay with NCI/ADR-RES ovarian and in the assay with SF-268 CNS was greater than 100 µM each time. Besides, the TGI in the assay on SN12C renal, with SW-620 colon, in the assay on U251 CNS and in the assay on UO-31 renal was greater than 100 µM in each case.

As to `CC12CCC3=C(CSC4=C3CSc3ccccc34)C1=CCCC2=O` (stereo not given), the TGI in the assay with ACHN renal, in the assay on CAKI-1 renal, in the assay with M14 melanoma, with MOLT-4 leukemia, with NCI-H460 lung and with SF-268 CNS was greater than 100 µM each time. For the same compound, the TGI in the assay with SN12C renal, in the assay with SW-620 colon, in the assay with U251 CNS and in the assay with UO-31 renal was greater than 100 µM in each case.

With `C=CCCCN1C(=O)C2C3c4ccccc4C(C=O)(c4ccccc43)C2C1=O` (stereo not given), the TGI is greater than 100 µM in the assay with ACHN renal; 50.9 µM in the assay on CAKI-1 renal; 19.4 µM in the assay on MOLT-4 leukemia; 30.3 µM in the assay on NCI-H460 lung; 58.2 µM in the assay on NCI/ADR-RES ovarian; 59 µM in the assay with SF-268 CNS. Further, the TGI worked out at 22.2 µM in the assay with SN12C renal, 27.1 µM in the assay on SW-620 colon, 24.9 µM in the assay with U251 CNS and 26 µM in the assay with UO-31 renal.

For the compound `c1ccc(C[P+]2(c3ccccc3)CCCCC2)cc1`, the TGI in the assay with ACHN renal, in the assay on M14 melanoma, in the assay on MOLT-4 leukemia, in the assay with NCI-H460 lung, with SN12C renal and in the assay with SW-620 colon was greater than 100 µM throughout. Further, the TGI in the assay on U251 CNS and in the assay on UO-31 renal was greater than 100 µM in each case.

For `C(=C/c1ccc2nc(-c3ccc(/C=C/C=N/NC4=NCCCN4)cc3)cn2c1)/C=N/NC1=NCCCN1`, the TGI in the assay on ACHN renal was greater than 100 µM; in the assay with CAKI-1 renal, 30.2 µM; with M14 melanoma it was greater than 100 µM; in the assay with MOLT-4 leukemia it was greater than 100 µM; with NCI-H460 lung it was 73.2 µM; in the assay on NCI/ADR-RES ovarian it was 51.7 µM. In addition, the TGI was 54.7 µM in the assay with SF-268 CNS, greater than 100 µM with SN12C renal, greater than 100 µM with U251 CNS and greater than 100 µM in the assay on UO-31 renal.

As for `CC(=O)Nc1ccc(S(=O)(=O)/N=c2/sc(S(N)(=O)=O)nn2C)cc1`, the TGI in the assay on ACHN renal, in the assay on CAKI-1 renal, in the assay with M14 melanoma, in the assay with MOLT-4 leukemia, with NCI-H460 lung and in the assay with NCI/ADR-RES ovarian was greater than 100 µM in each case. The TGI in the assay with SF-268 CNS, with SW-620 colon, in the assay on U251 CNS and with UO-31 renal was greater than 100 µM in each case.
